Source: patent US6300364A, “Medicinal compositions with cholesterol-lowering effect” (priority 1997, dated 2001)
Like-named read-outs stand apart in the source and are kept apart here.

Assays:
PPARδ [1] = molecular target: T1, PPARδ (Mus musculus, UniProt P35396); test: GAL4-PPARδ reporter (luciferase) activation assay in HepG2 cells; type: cell-based; details: for fold induction at 100 µM: read-out: Relative activity (control = 1) PPARδ; for PPARδ-activating effect (in words): conclusion from Table 1
T1 construct: mPPARδ (Met^137 -Tyr^439); expressed in transfected cells; host or cells: HepG2
T1 sequence (P35396 137-440 limits assumed): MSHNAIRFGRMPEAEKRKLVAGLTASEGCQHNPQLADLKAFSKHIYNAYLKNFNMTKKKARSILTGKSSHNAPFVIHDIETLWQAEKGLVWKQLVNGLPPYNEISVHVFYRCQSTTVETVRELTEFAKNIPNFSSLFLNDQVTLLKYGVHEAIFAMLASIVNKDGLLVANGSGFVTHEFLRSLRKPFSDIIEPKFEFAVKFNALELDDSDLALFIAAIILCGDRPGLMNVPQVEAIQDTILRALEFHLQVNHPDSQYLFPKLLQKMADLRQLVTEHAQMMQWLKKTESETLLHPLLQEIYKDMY

PPARα [2] = molecular target: T2, PPARα (Mus musculus, UniProt P23204); test: GAL4-PPARα reporter (luciferase) activation assay in HepG2 cells; type: cell-based; details: read-out: Relative activity (control = 1) PPARα
T2 construct: mPPARα (Gly^165 -Tyr^467); expressed in transfected cells; host or cells: HepG2
T2 sequence (P23204 165-468 limits assumed): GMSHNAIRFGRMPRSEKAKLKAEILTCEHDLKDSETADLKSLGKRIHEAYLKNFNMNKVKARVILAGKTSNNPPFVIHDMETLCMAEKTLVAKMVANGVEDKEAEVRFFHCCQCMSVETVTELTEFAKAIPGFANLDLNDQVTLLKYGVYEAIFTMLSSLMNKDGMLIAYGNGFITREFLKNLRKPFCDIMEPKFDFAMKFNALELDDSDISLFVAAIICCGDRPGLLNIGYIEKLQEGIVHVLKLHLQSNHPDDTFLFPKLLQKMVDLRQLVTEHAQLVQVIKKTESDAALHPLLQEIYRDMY

PPARγ = molecular target: T3, PPARγ (Mus musculus, UniProt P37238); test: GAL4-PPARγ reporter (luciferase) activation assay in HepG2 cells; details: for fold induction at 100 µM: HepG2, 48 h, read-out: Relative activity (control = 1) PPARγ; for PPARγ-activating effect (in words): conclusion from Table 1
T3 sequence (P37238 202-505): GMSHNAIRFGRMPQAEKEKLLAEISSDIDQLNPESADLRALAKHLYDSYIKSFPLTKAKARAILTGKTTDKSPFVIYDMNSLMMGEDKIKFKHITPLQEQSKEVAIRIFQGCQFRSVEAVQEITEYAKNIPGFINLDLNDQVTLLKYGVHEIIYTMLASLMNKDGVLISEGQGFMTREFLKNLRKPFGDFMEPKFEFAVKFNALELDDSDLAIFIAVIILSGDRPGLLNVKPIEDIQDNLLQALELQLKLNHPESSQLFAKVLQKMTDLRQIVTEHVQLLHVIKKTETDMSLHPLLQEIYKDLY
Source text: To identify a compound having a PPARδ and PPARγ ligand effect, fused gene expression vectors of the DNA-binding domain (GAL4-DNA bindgn domain, GAL4-DBD) of a yeast transcription activated protein and the PPAR ligand binding domains (LBDs) were constructed. Three activation vectors thus constructed were named GAL-PPARα, GAL-PPARδ and GAL-PPARγ respectively.
i) Ligand binding domains (PPAR-LBDs) of mouse peroxisome-proliferator-activated receptors (mPPARα, mPPARδ and mPPARγ) were each amplified by PCR (polymerase chain reaction). As a template employed in the amplification, total RNA was prepared from a fat tissue around mouse epididymis with the use of a total RNA extracting reagent Isogen (manufactured by Nippon Gene) in accordance with the attached manufacturer's instruction. […] PCR was performed by using GeneAmp PCR System Model 9600.
ii) Into one side of each primer thus synthesized, a recognition sequence of a restriction enzyme SmaI or BamHI had been preliminarily inserted so that the primer could be cleaved with the restriction enzyme. After the amplification, the PCR fragment was ligated with pGBT9 DNA-Binding Domain Vector (5.5 kb, having the GAL4-DBD domain and an ampicillin resistance gene Amp^R sequence, manufactured by Clontech) and the vector thus formed was named pGBT9-PPAR-LBD.
iii) A fused gene domain (GAL4-DBD+PPAR-LBD) wherein GAL4-DBD contained in pGBT9-PPAR-LBD was legated to PPARLBD was excised by using HindIII/SalI and transferred into the multiple cloning site (MCS) of an expression vector pZeoSV (3.5 kb, having zeocin resistance gene Zeo^R sequence, manufactured by Clontech) by using HindIII/Xhol. The thus obtained chimeric expression vectors of GAL4-DBD ad PPAR-LBD were named respectively GAL-PPARα, GAL-PPARδ and GAL-PPARγ.
i) DNA sequences were synthesized by using a DNA synthesizer (Beckman DNA Synthesizer oligo1000M, manufactured by Beckman) by repeating the GAL4-DBD binding sequence (GAL4 responsive element, RE or UASG) once (RE×1) or thrice (RE×3). Then appropriate restriction enzyme cites were introduced into both ends and these sequences were ligated together to give a 4-repetition sequence fragment (RE×4). Further, an 8-repetition sequence fragment (RE×8) was formed by using the same.
ii) A DNA sequence wherein TATA box was ligated to the above GAL4 responsive sequence (RE×8) was formed by PCR and then inserted into the 5'-side upstream of the luciferase gene sequence (RE-LUC) in a vector for luciferae assay system (Pica Gene Vector-2, (PGV-B2), Toyo Ink Mfg.). […] RE-LUC containing RE×8 was transferred into cells together with GAL-PPARγ. Then CS-045 (troglitazone), i.e., the ligand of PPARγ was added.
By using the activation vectors and reporter vectors constructed in the above (1) and (2), the PPAR activation effect of a compound was measured by a method involving the following three steps: i) Cotransfection of construction into a host; ii) treatment of cells by adding the compound; and iii) assay of the reporter gene expression level.
HepG2 cells (American Type Culture Collection, Maryland, USA) was inoculated into a collagen type IV treated 96-well plate (manufactured by Iwaki) at a cell density of 1×10^4 /well and incubated for 2 days in the presence of Dulbecco's modified Eagle medium containing 10% of fetal calf serum (FCS) (200 μl/well, FCS-DMEM (GIBCO BRL)). Next, the cells were washed with 100 μl/well of a cell incubation medium (OPTI-MEM I Reduced Serum Medium, manufactured by GIBCO BRL) maintained at 37° C.

PPARδ [3] = details: literature report; cited from earlier work
PPARα [4] = details: literature report; cited from earlier work
[5] = Test for evaluating cholesterol-lowering effect by using rhesus monkey; type: in vivo; details: for Decrease in LDL-C (LDL-cholesterol level) / Decrease in TC (serum total cholesterol level): male rhesus monkeys, 30 mg/kg/day in feed, 2 weeks, compared with data before the administration; for Effect of lowering serum total cholesterol level, in particular LDL-cholesterol level (in words): rhesus monkeys, conclusion from Table 2
Experimental: A test for evaluating cholesterol-lowering effect was performed by using rhesus monkeys in accordance with a method described in Br. J. Pharmacol., 118, p.174-178, 1996.
i) Male rhesus monkeys weighing about 4.5 to 5 kg (Purchased from Hamri) were fed by giving twice a day 50 g/day of a solid feed, which had been prepared by adding 50 ml of water and vitamin C (5 mg/kg/day, manufactured by Sigma) to 50 g of Purina powdery feed (Code #5408, manufactured by Oriental Yeast) and solidifying the mixture, and about 100 g of banana.
ii) The monkeys having been accustomed to the control feed were divided into a control group having 4 animals and test groups each having 3 animals. The animals of the […] were fed with the control feed. On the other hand, the animals of one test group were fed with a composition feed containing 30 mg/kg/day of YM-16683, while those of the other test group were fed with a composition feed containing 30 mg/kg/day of the compound of Production Example 1, each twice a day. To avoid unfinished feeding, banana was given to the animals after taking 50 g of each feed.
iii) The groups were fed with respective feeds for 2 weeks. About 16 hours before the day before the final administration, the animals were fasted and the blood samples were collected from thigh. After measuring body weight, blood collection was performed twice, i.e., before and after the administration of the test compound. Each blood sample thus collected was heparinized and serum was separated therefrom. Next, the total cholesterol level (TC) and LDL-cholesterol level (LDL-C) were measured by the enzymatic method with the use of an automatic analyzer (Model 736-10, Hitachi) (Table 2).
Decrease was calculated by comparing the data before the administration.

[6] = cited from earlier work; for Decrease in serum cholesterol level: normal subjects
[7] = cited from earlier work
[8] = test compound 10^-4 M, HepG2 cells, 48 hours, luciferase activity corrected by β-galactosidase, DMSO control = 1.0

CCOC(=O)C(C)(C)Oc1ccc(Cl)cc1 [Clofibrate]
fold induction at 100 µM (PPARδ [1]; HepG2, 48 h): 1.3
fold induction at 100 µM (PPARα [2]; HepG2, 48 h): 2.2
fold induction at 100 µM (PPARγ): 0.9

CCCCC[C@H](O)/C=C/[C@@H]1[C@H]2C/C(=C/CCCC(=O)O)O[C@H]2C[C@H]1O [PGI2, prostacyclin]
PPARδ activation / ligand activity (in words) (PPARδ [3]): activates neither PPARα nor PPARδ
PPARα activation / ligand activity (in words) (PPARα [4]): activates neither PPARα nor PPARδ

CCc1ccc(CCOc2ccc(CC3SC(=O)NC3=O)cc2)nc1 (centres unmarked) [Pioglitazone]
fold induction at 100 µM (PPARδ [1]; HepG2, 48 h): 1.4
fold induction at 100 µM (PPARα [2]; HepG2, 48 h): 1.5

CCCc1c(OCCCOc2ccc(CC(=O)O)cc2)ccc(C(C)=O)c1O [Production Example 1, p-[3-(4-acetyl-3-hydroxy-2-propylphenoxy)propoxy]phenylacetic acid]
PPARδ-activating effect (in words) (PPARδ [1]): effect of activating PPARδ and PPARγ
fold induction at 100 µM (PPARδ [1]; [8]): 83.5
fold induction at 100 µM (PPARα [2]; [8]): 0.6
fold induction at 100 µM (PPARγ): 10.3
PPARγ-activating effect (in words) (PPARγ): effect of activating PPARδ and PPARγ
Decrease in LDL-C (LDL-cholesterol level) [5]: 34%
Decrease in TC (serum total cholesterol level) [5]: 29%
Effect of lowering serum total cholesterol level, in particular LDL-cholesterol level (in words) [5]: excellent effect of lowering serum total cholesterol level, in particular, LDL-cholesterol level

Cc1cccc(Nc2cc(Cl)nc(SCC(=O)O)n2)c1C [Wy 14,643, prinixic acid]
PPARα activation / ligand activity (in words) (PPARα [4]): ligand specific to PPARα
fold induction at 100 µM (PPARγ): 1.8

CCCc1c(OCCCSc2nnc(SCC(=O)O)s2)ccc(C(C)=O)c1O [YM-16638]
PPARδ-activating effect (in words) (PPARδ [1]): effect of activating PPARδ and PPARγ
fold induction at 100 µM (PPARδ [1]; [8]): 46.2
fold induction at 100 µM (PPARα [2]; [8]): 1
fold induction at 100 µM (PPARγ): 2.5
PPARγ-activating effect (in words) (PPARγ): effect of activating PPARδ and PPARγ
Decrease in LDL-C (LDL-cholesterol level) [5]: 14%
Decrease in TC (serum total cholesterol level) [5]: 33%
Effect of lowering serum total cholesterol level, in particular LDL-cholesterol level (in words) [5]: excellent effect of lowering serum total cholesterol level, in particular, LDL-cholesterol level
Effect of lowering serum triglyceride level (in words) ([6]; humans): only a weak effect
Decrease in serum cholesterol level ([6]; administration dose 60 mg): about 26%
Decrease in serum cholesterol level ([6]; administration dose 120 mg): ~41%

CCCCC[C@H](O)/C=C/[C@@H]1[C@H]2C/C(=C/CCCC(=O)O)C[C@H]2C[C@H]1O [cPGI2, carbaprostacyclin]
fold induction at 100 µM (PPARδ [1]; HepG2, 48 h): 34
PPARδ activation / ligand activity (in words) (PPARδ [3]): has activities of both of PPARα and PPARδ ligands
fold induction at 100 µM (PPARα [2]; HepG2, 48 h): 15.2
PPARα activation / ligand activity (in words) (PPARα [4]): has activities of both of PPARα and PPARδ ligands
fold induction at 100 µM (PPARγ): 1.6

CCC(C)(C)C(=O)O[C@H]1C[C@@H](C)C=C2C=C[C@H](C)[C@H](CC[C@@H]3C[C@@H](O)CC(=O)O3)[C@H]21 [simvastatin]
Decrease in serum cholesterol level ([7]; patient with hyperlipemia, total serum cholesterol level of 220 mg/dl or above): about 20%
Decrease in serum cholesterol level ([7]; phase I clinical test, normal subjects, about 1 week after the initiation of the administration): about 20%
